Source: patent publication US20140113931A1, “SUBSTITUTED PICOLINAMIDE KINASE INHIBITORS” (Portola Pharmaceuticals, Inc., priority 2012, published 2014)

target: T1, full length active recombinant SYK enzyme (Homo sapiens, UniProt P43405); test: Inhibition of Syk tyrosine phosphorylation activity (LANCE TR-FRET kinase assay); format: biochemical; conditions: 1 nM active SYK enzyme, 550 nM SYK-substrate, 100 μM ATP, 1 hour at room temperature
T1 construct: full length active recombinant SYK enzyme (Millipore, CA); purchased Millipore, CA
Method: The in vitro and in vivo human Syk activities of the inventive compounds can be determined by various procedures known in the art, such as a test for their ability to inhibit the activity of human plasma Syk. […] The IC50 value is the concentration (in nM) of the compound required to provide 50% inhibition of human Syk proteolytic activity.
An in vitro assay for detecting and measuring inhibition activity against Syk is as follows:
SYK tyrosine phosphorylation activity is measured using the LANCE™ Technology developed by Perkin Elmer Life and Analytical Sciences (Boston, Mass.). LANCE™ refers to homogeneous time resolved fluorometry applications using techniques such as time-resolved fluorescence resonance energy transfer assay (TR-FRET) (see generally for procedures in Perkin Elmer Application Note—How to Optimize a Tyrosine Kinase Assay Using Time Resolved Fluorescence-Based LANCE Detection, wwww.perkinelmer.com/lifesciences). The assay principle involves detection of a phosphorylated substrate using energy transfer from a phosphospecific europium-labeled antibody to streptavidin-allophycocyanin as an acceptor.
Molecules are reconstituted in 30% DMSO and serially diluted 1:3 with the final dilution containing DMSO in the absence of the candidate molecule. The final DMSO concentration in the assay is 3%. Kinase assays are performed as a two part reaction. The first reaction is a kinase reaction and which comprises of a candidate molecule, full length active recombinant SYK enzyme (Millipore, CA) and biotin-labeled SYK-specific substrate biotin-DEEDYESP-OH. The second reaction involves termination of the kinase reaction and the simultaneous addition of the detection reagents-europium-labeled anti-phosphotyrosine reagent (Eu-W1024-PY100, Perkin Elmer, Boston, Mass.) and Streptavidin-Allophycocyanin detection reagent (SA-APC, Prozyme, CA). The kinase reaction is performed in a black U-bottom 96-well microtitre plate. The final reaction volume is 50 μL and contains a final concentration of 1 nM active SYK enzyme, 550 nM SYK-substrate, and 100 μM ATP diluted in a buffer containing 50 mM Tris pH 7.5, 5 mM MgCl2, and 1 mM DTT. The reaction is allowed to proceed for 1 hour at room temperature. The quench buffer contains 100 mM Tris pH 7.5, 300 mM NaCl2, 20 mM EDTA, 0.02% Brij35, and 0.5% BSA. The detection reagents are added to the reaction mixture at the following dilutions-1:500 for Eu-W1024-PY100 and 1:250 for SA-APC. The kinase reaction is terminated by the addition of 50 μL quench buffer containing the detection reagents. The detection is allowed to proceed for 1 hr at room temperature. Detection of the phosphorlated substrate in the absence and presence of inhibitors is measured in the TR-FRET instrument, Analyst HT (Molecular Probes, Sunnyvale, Calif.) and the condition for measurements are set up using CriterionHost Release 2.0 (Molecular Probes, Sunnyvale, Calif.). The settings used are a follows: excitation 360 nm, emission 665-7.5 nm, beam splitter 350 nm 50/50, flash 100 pulses, delay 60 us, integration 400 us, z-height 2 mm. Inhibition of SYK-tyrosine kinase activity is calculated as the maximum response observed in the presence of inhibitor, compared to that in the absence of inhibitor. IC50s were derived by non-linear regression analysis.

| SMILES | IC50 |
| --- | --- |
| NC(=O)c1ncc(N[C@@H]2CCCC[C@@H]2N)cc1Nc1cnc2ccccc2c1 [Example 13, 5-((1R,2S)-2-aminocyclohexylamino)-3-(quinolin-3-ylamino)picolinamide] | 0.1 to 1 µM |
| CC(C)C[C@@H](Nc1cnc(C(N)=O)c(Nc2cc(-c3ccncc3)no2)c1)C(N)=O [Example 47, (R)-5-(1-amino-4-methyl-1-oxopentan-2-ylamino)-3-(3-(pyridin-4-yl)isoxazol-5-ylamino)picolinamide] | 0.001 to 0.01 µM |
| NC(=O)c1ncc(N[C@@H]2CCCC[C@@H]2N)cc1Nc1cc(-c2ccccc2)no1 [Example 8, 5-((1R,2S)-2-aminocyclohexylamino)-3-(3-phenylisoxazol-5-ylamino)picolinamide] | 0.001 to 0.01 µM |
| CC(C)C[C@@H](Nc1cnc(C(N)=O)c(Nc2cc(-c3ccccc3)no2)c1)C(N)=O [Example 11, (R)-5-(1-amino-4-methyl-1-oxopentan-2-ylamino)-3-(3-phenylisoxazol-5-ylamino)picolinamide] | 0.001 to 0.01 µM |
| CC(C)C[C@@H](Nc1cnc(C(N)=O)c(Nc2ccc3cnccc3c2)c1)C(N)=O [Example 17, (R)-5-(1-amino-4-methyl-1-oxopentan-2-ylamino)-3-(isoquinolin-6-ylamino)picolinamide] | 0.01 to 0.1 µM |
| CC[C@@H](Nc1cnc(C(N)=O)c(Nc2cc(C)ns2)c1)C(N)=O [Example 5, (R)-5-(1-amino-1-oxobutan-2-ylamino)-3-(3-methylisothiazol-5-ylamino)picolinamide] | 0.01 to 0.1 µM |
| CC(C)C[C@@H](Nc1cnc(C(N)=O)c(Nc2nc(-c3ccccc3)no2)c1)C(N)=O [Example 30, (R)-5-((1-amino-4-methyl-1-oxopentan-2-yl)amino)-3-((3-phenyl-1,2,4-oxadiazol-5-yl)amino)picolinamide] | 0.01 to 0.1 µM |
| NC(=O)c1ncc(N[C@@H]2CCCC[C@@H]2N)cc1Nc1cc(-c2cccnc2)no1 [Example 50, 5-((1R,2S)-2-aminocyclohexylamino)-3-(3-(pyridin-3-yl)isoxazol-5-ylamino)picolinamide] | 0.01 to 0.1 µM |
| CC(C)C[C@@H](Nc1cnc(C(N)=O)c(Nc2ccc3ncccc3c2)c1)C(N)=O [Example 16, (R)-5-(1-amino-4-methyl-1-oxopentan-2-ylamino)-3-(quinolin-6-ylamino)picolinamide] | 0.01 to 0.1 µM |
| NC(=O)c1ncc(N[C@@H]2CCCC[C@@H]2N)cc1Nc1ccc2ncccc2c1 [Example 27, 5-((1R,2S)-2-aminocyclohexylamino)-3-(quinolin-6-ylamino)picolinamide] | 0.01 to 0.1 µM |
| NC(=O)c1ncc(N[C@@H]2CCCC[C@@H]2N)cc1Nc1ccc2ccncc2c1 [Example 14, 5-((1R,2S)-2-aminocyclohexylamino)-3-(isoquinolin-7-ylamino)picolinamide] | 0.01 to 0.1 µM |
| NC(=O)c1ncc(N[C@@H]2CCCC[C@@H]2N)cc1Nc1ccc2cnccc2c1 [Example 12, 5-((1R,2S)-2-aminocyclohexylamino)-3-(isoquinolin-6-ylamino)picolinamide] | 0.01 to 0.1 µM |
| Cc1cc(Nc2cc(NC3(C(N)=O)CC3)cnc2C(N)=O)sn1 [Example 32, 5-(1-carbamoylcyclopropylamino)-3-(3-methylisothiazol-5-ylamino)picolinamide] | 0.001 to 0.01 µM |
| CC(C)(C)[C@@H](Nc1cnc(C(N)=O)c(Nc2cc(C3CC3)ns2)c1)C(N)=O [Example 39, (R)-5-(1-amino-3,3-dimethyl-1-oxobutan-2-ylamino)-3-(3-cyclopropylisothiazol-5-ylamino)picolinamide] | 0.01 to 0.1 µM |
| COC[C@@H](Nc1cnc(C(N)=O)c(Nc2cc(C)ns2)c1)C(N)=O [Example 48, (R)-5-(1-amino-3-methoxy-1-oxopropan-2-ylamino)-3-(3-methylisothiazol-5-ylamino)picolinamide] | 0.01 to 0.1 µM |
| Cc1cc(Nc2cc(N[C@@H]3CCCC[C@@H]3N)cnc2C(N)=O)on1 [Example 10, 5-((1R,2S)-2-aminocyclohexylamino)-3-(3-methylisoxazol-5-ylamino)picolinamide] | 0.01 to 0.1 µM |
